# According to PubChem BioAssay AID2060505 (Molecular Pharmacology Branch, DTP, NCI, 2025):
# pIC50: −log10 of the molar value.
# Test system: 633275-114-R-J1-PDC complex spheroids, viability
# Experiment: Anticancer human tumor 633275-114-R-J1-PDC patient-derived endometrial adenocarcinoma cell line growth inhibition [GQUAD]
# Details: for pIC50: curve of first compound; for viability, T/C: stronger effect = lower value
# Excerpt: DNA G-quadruplex Stabilizer Agents in Combinations in Complex Spheroids
# A high-throughput screen of multi-cell type tumor spheroids was designed to identify active combinations of DNA G-quadruplex stabilizer agents and targeted small molecules. Complex spheroids include a stromal component modeled by human endothelial cells (HUVEC) and fibroblasts modeled by human mesenchymal stem cells (MSCs). The concentration ranges selected for each drug and investigational agent were based upon clinically achievable concentrations if the clinical Cmax of the agent was known.
# Compounds. The drugs and investigational agents: pidnarulex (CX-5461; NSC782164), APTO-253 (NSC789042), BRACO-19 (NSC847499), peposertib (NSC802822), ceralasertib (NSC780249), elimusertib (NSC800525), camonsertib (NSC841442), AZD-1390 (NSC803789), olaparib (NSC753686), talazoparib (NSC767125), ART-558 (NSC835418), sotorasib (NSC818433), MRTX-1133 (NSC836407), SN-38 (NSC673596), topotecan (NSC609699), etoposide (NSC141540), doxorubicin (NSC123127), gemcitabine (NSC613327), 5-fluorouracil (NSC19893), paclitaxel (NSC125973), vemurafenib (NSC761431), panobinostat (NSC761190), R-306465 (JNJ-16241199; NSC773264), adavosertib (NSC754352), TP-3654 (NSC805149), carboplatin (NSC241240), KSQ-4279 (NSC840948), and staurosporine (NSC755774) were obtained from the National Cancer Institute (NCI) Developmental Therapeutics Program Chemical Repository (34). The FDA-approved anticancer drug set is available from the NCI Developmental Therapeutics Program. […] The stock solutions were prepared in dimethyl sulfoxide (DMSO, Sigma-Aldrich, St. Louis, MO, cat. D2650) at 800-fold the tested concentration and stored at -70 degrees C prior to their use. All drugs and investigational agents were tested over a range starting from a high concentration at or near the clinical Cmax and decreasing in half-log increments. If the clinical Cmax for an agent had not been determined, the highest concentration tested was 10 microM.
# 2.3 Cell Culture. All cells were maintained in an incubator at 37 degrees C and 5% CO2 with 95% humidity. The PDC lines were cultured according to standard operating procedures established by the NCI PDMR. All PDCs were thawed and cultured in Matrigel-coated flasks prepared with a working solution of 1X Ham's F-12 nutrient mix, without supplementation (Invitrogen, cat. 11765054), 100 U/mL penicillin-streptomycin (Invitrogen, cat. 15140122), and 2.5% Matrigel (Corning Inc., cat. 354248) for the first three passages. The 857933-349-R-J2-PDC line was cultured in 6C/Colon 1B media, which includes advanced DMEM/F-12 (Thermo Fisher Scientific, cat. 12634028), 10 mM HEPES (Thermo Fisher Scientific, cat. 15630080), 1X GlutaMAX supplement (Thermo Fisher Scientific, cat. 35050061), 0.1 mg/mL primocin (InvivoGen, cat. ant-pm-2), 10% defined fetal bovine serum, heat inactivated (HyClone Laboratories Inc., cat. SH30070.03HI), 50% L-WRN conditioned media (ATCC, cat. CRL-3276), 1.25 mM N-Acetyl-L-cysteine (Sigma-Aldrich, cat. A9165), 10 mM nicotinamide (Sigma-Aldrich, cat. N0636), 1X B-27 supplement (Thermo Fisher Scientific, cat. 17504044), 1X N-2 supplement (Thermo Fisher Scientific, cat. 17502048), 10 microM Y-27632 dihydrochloride (Tocris Bioscience, cat. 1254), and 50 ng/mL human EGF recombinant protein (Thermo Fisher Scientific, cat. PHG0311). The 485176-168-R4-J1-PDC line was cultured in Panc media, which includes all 6C/Colon 1B media components plus 100 ng/mL human FGF-10 (Thermo Fisher Scientific, cat. 100-26), 500 nM SB-431542 (Selleckchem, cat. S1067), and gastrin (Tocris, cat. 3006).
# […]
# [1] = second compound 0.0316 µM, first compound 0.0316 µM
# [2] = second compound 0.0316 µM, first compound 0.316 µM
# [3] = second compound 0.1 µM, first compound 0.0316 µM
# [4] = second compound 0.1 µM, first compound 0.316 µM
# [5] = second compound 0.316 µM, first compound 0.0316 µM
# [6] = second compound 0.316 µM, first compound 0.316 µM
# [7] = second compound 1 µM, first compound 0.0316 µM
# [8] = second compound 1 µM, first compound 0.316 µM
# [9] = second compound 3.16 µM, first compound 0.0316 µM
# [10] = second compound 3.16 µM, first compound 0.316 µM
# [11] = second compound 10 µM, first compound 0.0316 µM
# [12] = second compound 10 µM, first compound 0.316 µM
# 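Note: spheroids exposed to the agents for seven days.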
# 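Throughout, for viability, T/C: percent of DMSO vehicle control viability which is 100%.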
structure (smiles),measurement,setting,value
CCc1c2c(nc3ccc(O)cc13)-c1cc3c(c(=O)n1C2)COC(=O)[C@]3(O)CC + Cc1cnc(CNC(=O)c2c(=O)c3ccc(N4CCCN(C)CC4)nc3n3c2sc2ccccc23)cn1,pIC50,second compound 0.0316 µM,8.80
same,pIC50,second compound 0.1 µM,> 9.00
same,pIC50,second compound 0.316 µM,> 9.00
same,pIC50,second compound 1 µM,> 9.00
same,pIC50,second compound 3.16 µM,> 9.00
same,pIC50,second compound 10 µM,> 9.00
same,"viability, T/C","second compound 0.0316 µM, first compound 0.000999 µM",57.4%
same,"viability, T/C","second compound 0.0316 µM, first compound 0.00316 µM",38.5%
same,"viability, T/C","second compound 0.0316 µM, first compound 0.00999 µM",32.5%
same,"viability, T/C",[1],32.5%
same,"viability, T/C","second compound 0.0316 µM, first compound 0.0999 µM",26.6%
same,"viability, T/C",[2],24.4%
same,"viability, T/C","second compound 0.1 µM, first compound 0.000999 µM",46.3%
same,"viability, T/C","second compound 0.1 µM, first compound 0.00316 µM",36.2%
same,"viability, T/C","second compound 0.1 µM, first compound 0.00999 µM",35.4%
same,"viability, T/C",[3],32.4%
same,"viability, T/C","second compound 0.1 µM, first compound 0.0999 µM",27.2%
same,"viability, T/C",[4],25.2%
same,"viability, T/C","second compound 0.316 µM, first compound 0.000999 µM",42.9%
same,"viability, T/C","second compound 0.316 µM, first compound 0.00316 µM",37.9%
same,"viability, T/C","second compound 0.316 µM, first compound 0.00999 µM",33.9%
same,"viability, T/C",[5],31.2%
same,"viability, T/C","second compound 0.316 µM, first compound 0.0999 µM",30%
same,"viability, T/C",[6],26.8%
same,"viability, T/C","second compound 1 µM, first compound 0.000999 µM",40.4%
same,"viability, T/C","second compound 1 µM, first compound 0.00316 µM",35.3%
same,"viability, T/C","second compound 1 µM, first compound 0.00999 µM",35.9%
same,"viability, T/C",[7],30.2%
same,"viability, T/C","second compound 1 µM, first compound 0.0999 µM",27.8%
same,"viability, T/C",[8],18.7%
same,"viability, T/C","second compound 3.16 µM, first compound 0.000999 µM",34%
same,"viability, T/C","second compound 3.16 µM, first compound 0.00316 µM",31.9%
same,"viability, T/C","second compound 3.16 µM, first compound 0.00999 µM",28.3%
same,"viability, T/C",[9],27%
same,"viability, T/C","second compound 3.16 µM, first compound 0.0999 µM",24.9%
same,"viability, T/C",[10],13.4%
same,"viability, T/C","second compound 10 µM, first compound 0.000999 µM",30.3%
same,"viability, T/C","second compound 10 µM, first compound 0.00316 µM",28%
same,"viability, T/C","second compound 10 µM, first compound 0.00999 µM",26.4%
same,"viability, T/C",[11],27.8%
same,"viability, T/C","second compound 10 µM, first compound 0.0999 µM",21.1%
same,"viability, T/C",[12],0.26%
COc1cccc2c1C(=O)c1c(O)c3c(c(O)c1C2=O)CC(O)(C(=O)CO)CC3OC1CC(N)C(O)C(C)O1 (centres undefined) + Cc1cnc(CNC(=O)c2c(=O)c3ccc(N4CCCN(C)CC4)nc3n3c2sc2ccccc23)cn1,pIC50,second compound 0.0316 µM,> 7.50
same,pIC50,second compound 0.1 µM,> 7.50
same,pIC50,second compound 0.316 µM,> 7.50
same,pIC50,second compound 1 µM,> 7.50
same,pIC50,second compound 3.16 µM,> 7.50
same,pIC50,second compound 10 µM,> 7.50
same,"viability, T/C",[1],47.7%
same,"viability, T/C","second compound 0.0316 µM, first compound 0.1 µM",44.6%
same,"viability, T/C",[2],34.8%
same,"viability, T/C","second compound 0.0316 µM, first compound 1 µM",19.2%
same,"viability, T/C","second compound 0.0316 µM, first compound 3.16 µM",1.21%
same,"viability, T/C","second compound 0.0316 µM, first compound 10 µM",1.57%
same,"viability, T/C",[3],47.7%
same,"viability, T/C","second compound 0.1 µM, first compound 0.1 µM",43.1%
same,"viability, T/C",[4],33.9%
same,"viability, T/C","second compound 0.1 µM, first compound 1 µM",19.1%
same,"viability, T/C","second compound 0.1 µM, first compound 3.16 µM",0.53%
same,"viability, T/C","second compound 0.1 µM, first compound 10 µM",1.49%
same,"viability, T/C",[5],44.1%
same,"viability, T/C","second compound 0.316 µM, first compound 0.1 µM",39.7%
same,"viability, T/C",[6],30.2%
same,"viability, T/C","second compound 0.316 µM, first compound 1 µM",14.3%
same,"viability, T/C","second compound 0.316 µM, first compound 3.16 µM",0.1%
same,"viability, T/C","second compound 0.316 µM, first compound 10 µM",1.32%
same,"viability, T/C",[7],41.4%
same,"viability, T/C","second compound 1 µM, first compound 0.1 µM",35.2%
same,"viability, T/C",[8],30.6%
same,"viability, T/C","second compound 1 µM, first compound 1 µM",16%
same,"viability, T/C","second compound 1 µM, first compound 3.16 µM",0.1%
same,"viability, T/C","second compound 1 µM, first compound 10 µM",0.65%
same,"viability, T/C",[9],33.8%
same,"viability, T/C","second compound 3.16 µM, first compound 0.1 µM",32.2%
same,"viability, T/C",[10],25.4%
same,"viability, T/C","second compound 3.16 µM, first compound 1 µM",11.2%
same,"viability, T/C","second compound 3.16 µM, first compound 3.16 µM",0.14%
same,"viability, T/C","second compound 3.16 µM, first compound 10 µM",0.46%
same,"viability, T/C",[11],31%
same,"viability, T/C","second compound 10 µM, first compound 0.1 µM",28.8%
same,"viability, T/C",[12],24.5%
same,"viability, T/C","second compound 10 µM, first compound 1 µM",4.52%
same,"viability, T/C","second compound 10 µM, first compound 3.16 µM",0.19%
same,"viability, T/C","second compound 10 µM, first compound 10 µM",0.43%
